Data published in patent US20240240224A1, “FLUORESCENT D-TYPE AMINO ACID METABOLISM MARKER-BASED METHOD FOR DETECTING ANTIBACTERIAL DRUG SENSITIVITY TEST” (priority 2020, published 2024).
Values after ≈ are worked out from the molar mass of the structure shown.

Legend:
E. faecalis ATCC29212 [1] = experiment: BMD susceptibility test; type: cell-based, Enterococcus faecalis; conditions: unit assumed
[2] = system: alveolar lavage fluid sample 0203, K. pneumoniae; experiment: BMD susceptibility test of patient alveolar lavage fluid; type: cell-based, Klebsiella pneumoniae; conditions: unit assumed
Excerpt: (§1) The results of antimicrobial susceptibility test of alveolar lavage fluid of seven patients using FDAA and BMD methods are shown in the following table. The drug-resistant bacteria are shown in bold.

[3] = system: alveolar lavage fluid sample 0226, K. pneumoniae; experiment: as above; type: cell-based, Klebsiella pneumoniae; conditions: unit assumed
Excerpt: as §1

[4] = system: alveolar lavage fluid sample 0203, K. pneumoniae; experiment: FaAST (FDAA) susceptibility test of patient alveolar lavage fluid; type: cell-based, Klebsiella pneumoniae; conditions: unit assumed
Procedure: (§2) With reference to the flow chart of the rapid detection method of antimicrobial susceptibility test based on FDAA metabolic markers shown in FIG. 3, FDAA is used for the detection of antimicrobial susceptibility test of alveolar lavage fluid. The specific experimental steps are as follows: • 1. Mix bronchoalveolar lavage fluid (BALF, 10 ml) of patients with hospital acquired pneumonia with cation regulated broth medium (CAMHB, 10 ml) of twice the concentration to prepare the bacterial fluid to be tested. • 2. Add 45 μl antibiotic solutions of different concentrations to the 96-well plate separately (see Table 1 for antibiotic concentration gradient settings). • 3. Add 50 μl of the bacterial solution prepared in step 1 to the 96-well plate and mix well. • 4. Add 5 μl of 10 mM Cy5-DAA probe (final concentration 0.15 mM, see FIG. 1 for its structure) into each well, mix well, and then cultivate in dark for 2 hours. • 5. Add 200 μl PBS solution for dilution, and then use flow cytometry to detect the fluorescence intensity of each sample.
as §1

[5] = system: alveolar lavage fluid sample 0226, K. pneumoniae; experiment: as above; type: cell-based, Klebsiella pneumoniae; conditions: unit assumed
Procedure: as §2, §1

[6] = system: Staphylococcus aureus SA31; experiment: FaAST with DAA-Tetra probe; type: cell-based; conditions: unit assumed
Procedure: The specific experimental steps are as follows: • 1. The tested colonies cultured overnight on the plate were picked and mixed thoroughly in 2× Cation-Adjusted Mueller Hinton Broth medium (2×CAMHB) to make bacterial suspension with turbidity of OD600=0.1. • 2. […] Add 50 μL of the bacterial solution prepared in step 1 (the final concentration of the bacterial solution is OD600=0.05) to the 96-well plate, and add 5 μL of 3 mM DAA-Tetra probe (the final concentration is 0.15 mM), mix well, and incubate in the dark at 37° C. 120 rpm for 2 hours. • 4. After culture, dilute the mixed bacterial solution 10 times with PBS solution, and detect the fluorescence intensity of each sample with flow cytometry. The flow detection result is shown in FIG. 14-19, and the arrow is for the MIC value. The minimum inhibitory concentration of antibiotics was obtained according to the fluorescence signal intensity of flow detection, and the statistical results are shown in Table 6.

[7] = system: alveolar lavage fluid sample 0204, A. baumannii; experiment: FaAST (FDAA) susceptibility test of patient alveolar lavage fluid; type: cell-based, Acinetobacter baumannii; conditions: unit assumed
Procedure: as §2, §1

[8] = system: alveolar lavage fluid sample 0130, A. baumannii; experiment: as above; type: cell-based, Acinetobacter baumannii; conditions: unit assumed
Procedure: as §2, §1

[9] = system: alveolar lavage fluid sample 0206, A. baumannii; experiment: as above; type: cell-based, Acinetobacter baumannii; conditions: unit assumed
Procedure: as §2, §1

[10] = system: alveolar lavage fluid sample 0219, A. baumannii; experiment: as above; type: cell-based, Acinetobacter baumannii; conditions: unit assumed
Procedure: as §2, §1

S. aureus Sa23 [11] = experiment: BMD susceptibility test; type: cell-based, Staphylococcus aureus; conditions: unit assumed
S. aureus ATCC29213 [12] = experiment: BMD susceptibility test; type: cell-based, Staphylococcus aureus; conditions: unit assumed
E. faecium Ef26 [13] = experiment: BMD susceptibility test; type: cell-based, Enterococcus faecium; conditions: unit assumed
E. faecium Ef28 [14] = experiment: BMD susceptibility test; type: cell-based, Enterococcus faecium; conditions: unit assumed
[15] = system: Staphylococcus aureus SA31; experiment: VITEK drug sensitivity test; type: cell-based; conditions: unit assumed
[16] = system: Staphylococcus aureus SA22; experiment: VITEK drug sensitivity test; type: cell-based; conditions: unit assumed
S. aureus Sa22 [17] = experiment: BMD susceptibility test; type: cell-based, Staphylococcus aureus; conditions: unit assumed
[18] = system: Staphylococcus aureus SA22; experiment: FaAST with DAA-Cy5-2 probe; type: cell-based; conditions: unit assumed
Procedure: as §2
The specific steps are the same as in Example 5. […] The minimum inhibitory concentration of antibiotics was obtained according to the fluorescence signal intensity of flow detection, and the statistical results are shown in Table 7.

S. aureus Sa22 [19] = experiment: FaAST (FDAA metabolic labeling method); type: cell-based, Staphylococcus aureus; conditions: unit assumed
Procedure: (§3) Take the colony to be tested that has been cultured overnight on the plate and fully mix it in normal saline to make a uniform bacterial solution. Dilute it into Cation-Adjusted Mueller Hinton Broth (CAMHB) culture medium to make a bacterial solution with OD600=0.05. • 2. Add 45 μl antibiotic solutions of different concentrations to 96-well plates (see Table 1 for antibiotic concentration gradient settings). • 3. Add 50 μl of the bacterial solution prepared in step 1 to the 96-well plate and mix well. • 4. Add 5 μl of 10 mM Cy5-DAA probe (final concentration 0.15 mM, see FIG. 1 for its structure) into each well, mix well, and cultivate in dark for 2 hours. • 5. Add 200 μl After PBS solution is diluted, the fluorescence intensity of each sample is detected by flow cytometry. The flow detection results are shown in FIG. 4-5, showing the curve of the change of antibiotic concentration gradient and fluorescence intensity. The MIC (minimum inhibitory concentration) can be obtained by referring to this curve.
(§4) Bacteria with antibiotic resistance are shown in bold in the following table.

S. aureus Sa23 [20] = experiment: FaAST (FDAA metabolic labeling method); type: cell-based, Staphylococcus aureus; conditions: unit assumed
Procedure: as §3, §4

S. aureus ATCC29213 [21] = experiment: FaAST (FDAA metabolic labeling method); type: cell-based, Staphylococcus aureus; conditions: unit assumed
Procedure: as §3, §4

E. faecalis ATCC29212 [22] = experiment: FaAST (FDAA metabolic labeling method); type: cell-based, Enterococcus faecalis; conditions: unit assumed
Procedure: as §3, §4

S. aureus ATCC29213 [23] = conditions: cited from earlier work
E. faecalis ATCC29212 [24] = conditions: cited from earlier work
[25] = system: alveolar lavage fluid sample 0130, A. baumannii; experiment: BMD susceptibility test of patient alveolar lavage fluid; type: cell-based, Acinetobacter baumannii; conditions: unit assumed
Excerpt: as §1

[26] = system: alveolar lavage fluid sample 0206, A. baumannii; experiment: as above; type: cell-based, Acinetobacter baumannii; conditions: unit assumed
Excerpt: as §1

[27] = system: alveolar lavage fluid sample 0219, A. baumannii; experiment: as above; type: cell-based, Acinetobacter baumannii; conditions: unit assumed
Excerpt: as §1

E. faecium Ef26 [28] = experiment: FaAST (FDAA metabolic labeling method); type: cell-based, Enterococcus faecium; conditions: unit assumed
Procedure: as §3, §4

E. faecium Ef28 [29] = experiment: FaAST (FDAA metabolic labeling method); type: cell-based, Enterococcus faecium; conditions: unit assumed
Procedure: as §3, with “The flow detection results are shown in FIG. 4-5, showing the curve of the change of antibiotic concentration gradient and fluorescence intensity.” left out

## CC(=O)NC[C@H]1CN(c2ccc(N3CCOCC3)c(F)c2)C(=O)O1 [Linezolid, linezolid]
E. faecalis ATCC29212 [1]
  BMD (MIC): 1 µg/mL
[2]
  BMD (MIC): 64 µg/mL
[3]
  BMD (MIC): 64 µg/mL
[4]
  FaAST (MIC): 16 µg/mL
[5]
  FaAST (MIC): 16 µg/mL
[6]
  MIC, FaAST: 1 µg/mL (≈ 2.96 µM)
[7]
  FaAST (MIC): 64 µg/mL
[8]
  FaAST (MIC): 64 µg/mL
[9]
  FaAST (MIC): 64 µg/mL
[10]
  FaAST (MIC): 16 µg/mL
S. aureus Sa23 [11]
  BMD (MIC): 8 µg/mL
S. aureus ATCC29213 [12]
  BMD (MIC): 2 µg/mL
E. faecium Ef26 [13]
  BMD (MIC): 2 µg/mL
E. faecium Ef28 [14]
  BMD (MIC): 2 µg/mL
[15]
  MIC, VITEK: 1 µg/mL (≈ 2.96 µM)
[16]
  MIC, VITEK: 1 µg/mL (≈ 2.96 µM)
S. aureus Sa22 [17]
  BMD (MIC): 2 µg/mL
[18]
  MIC, FaAST: 0.5 µg/mL (≈ 1.48 µM)
S. aureus Sa22 [19]
  FaAST (MIC): 1 µg/mL
S. aureus Sa23 [20]
  FaAST (MIC): 8 µg/mL
S. aureus ATCC29213 [21]
  FaAST (MIC): 2 µg/mL
E. faecalis ATCC29212 [22]
  FaAST (MIC): 2 µg/mL
S. aureus ATCC29213 [23]
  CLSI QC range: 1-4
E. faecalis ATCC29212 [24]
  CLSI QC range: 1-4
[25]
  BMD (MIC): 64 µg/mL
[26]
  BMD (MIC): 128 µg/mL
[27]
  BMD (MIC): 32 µg/mL
E. faecium Ef26 [28]
  FaAST (MIC): 2 µg/mL
E. faecium Ef28 [29]
  FaAST (MIC): 2 µg/mL
